Values joined by “and” are separate entries in the source; they are usually repeats but may differ in a detail not shown here. Identical values can stand only once. Toxic doses and inconclusive results are not listed.
System: CD2F1 mice, L1210 leukemia ip, survival T/C
Experiment: NCI In Vivo Anticancer Drug Screen. Data for tumor model L1210 Leukemia (intraperitoneal) in CD2F1 (CDF1) mice
Settings: higher = longer survival
Procedure, shortened: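 Each value reflects a quotient of treated over vehicle control outcomes in mice with a transplanted tumor.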

[1] = endpoint: mean survival time, dose: 12.5 mg/kg/injection, schedule: Q01DX009 (ip), vehicle: saline
[2] = endpoint: mean survival time, dose: 25.0 mg/kg/injection, schedule: Q01DX009 (ip), vehicle: saline
[3] = endpoint: mean survival time, dose: 50.0 mg/kg/injection, schedule: Q01DX009 (ip), vehicle: saline
[4] = endpoint: mean survival time, dose: 25.0 mg/kg/injection, schedule: Q01DX009 (ip), vehicle: saline with Tween-80
[5] = endpoint: mean survival time, dose: 50.0 mg/kg/injection, schedule: Q01DX009 (ip), vehicle: saline with Tween-80
[6] = endpoint: median survival time, dose: 50.0 mg/kg/injection, schedule: Q01DX009 (ip), vehicle: Klucel (hydroxypropylcellulose) (HPC)
[7] = endpoint: median survival time, dose: 100.0 mg/kg/injection, schedule: Q01DX009 (ip), vehicle: Klucel (hydroxypropylcellulose) (HPC)
[8] = endpoint: median survival time, dose: 200.0 mg/kg/injection, schedule: Q01DX009 (ip), vehicle: Klucel (hydroxypropylcellulose) (HPC)

Cc1ccc2c(c1)C1(C)OC(C=CC1=O)O2 (stereo unspecified)
T/C (endpoint: median survival time, dose: 3.12 mg/kg/injection, schedule: Q01DX005 (ip), vehicle: Klucel (hydroxypropylcellulose) (HPC)): 106 % of control
T/C (endpoint: median survival time, dose: 6.25 mg/kg/injection, schedule: Q01DX005 (ip), vehicle: Klucel (hydroxypropylcellulose) (HPC)): 101 % of control
T/C (endpoint: median survival time, dose: 12.5 mg/kg/injection, schedule: Q01DX005 (ip), vehicle: Klucel (hydroxypropylcellulose) (HPC)): 105 % of control
T/C (endpoint: median survival time, dose: 25.0 mg/kg/injection, schedule: Q01DX005 (ip), vehicle: Klucel (hydroxypropylcellulose) (HPC)): 101 % of control and 105 % of control
T/C (endpoint: median survival time, dose: 50.0 mg/kg/injection, schedule: Q01DX005 (ip), vehicle: Klucel (hydroxypropylcellulose) (HPC)): 103 % of control

C=CCOCC(O)CNCCCC (stereo unspecified)
T/C [1]: 96 % of control
T/C [2]: 107 % of control
T/C [3]: 96 % of control and 111 % of control

CC(C)(CO)COS(=O)(=O)c1ccc(Br)cc1
T/C (endpoint: mean survival time, dose: 12.5 mg/kg/injection, schedule: Q01DX009 (ip), vehicle: saline with Tween-80): 95 % of control
T/C [4]: 95 % of control
T/C [5]: 95 % of control

N#C[CH2][Sn]([I])([c]1ccccc1)[c]1ccccc1
T/C (endpoint: mean survival time, dose: 0.39 mg/kg/injection, schedule: Q01DX009 (ip), vehicle: saline): 103 % of control
T/C (endpoint: mean survival time, dose: 0.78 mg/kg/injection, schedule: Q01DX009 (ip), vehicle: saline): 100 % of control

Nc1ncnc2c(C3OC(CO)C(O)C3O)c[nH]c12 (stereo unspecified)
T/C (endpoint: median survival time, dose: 0.05 mg/kg/injection, schedule: Q01DX005 (ip), vehicle: saline): 114 % of control and 121 % of control
T/C (endpoint: median survival time, dose: 0.1 mg/kg/injection, schedule: Q01DX005 (ip), vehicle: saline): 116 % of control and 123 % of control
T/C (endpoint: median survival time, dose: 0.4 mg/kg/injection, schedule: Q01DX005 (ip), vehicle: saline): 115 % of control
T/C (endpoint: median survival time, dose: 0.8 mg/kg/injection, schedule: Q01DX005 (ip), vehicle: saline): 102 % of control and 104 % of control

O=C(CSC1=NCCN1)c1ccccc1
T/C [1]: 101 % of control
T/C [2]: 101 % of control
T/C [3]: 102 % of control

NNc1ncn[nH]1
T/C (endpoint: mean survival time, dose: 25.0 mg/kg/injection, schedule: Q01DX001 (ip), vehicle: saline with Tween-80): 98 % of control
T/C (endpoint: mean survival time, dose: 50.0 mg/kg/injection, schedule: Q01DX001 (ip), vehicle: saline with Tween-80): 101 % of control

CC(=O)OC1CCC2(C)C(CCC3(C)C2CCC2C4C5OC(=O)C4(CCC5(C)C)CCC23C)C1(C)C (stereo unspecified)
T/C (endpoint: mean survival time, dose: 6.25 mg/kg/injection, schedule: Q04DX002 (ip), vehicle: saline with Tween-80): 114 % of control
T/C (endpoint: mean survival time, dose: 12.5 mg/kg/injection, schedule: Q04DX002 (ip), vehicle: saline with Tween-80): 100 % of control
T/C (endpoint: mean survival time, dose: 25.0 mg/kg/injection, schedule: Q04DX002 (ip), vehicle: saline with Tween-80): 100 % of control
T/C (endpoint: mean survival time, dose: 50.0 mg/kg/injection, schedule: Q04DX002 (ip), vehicle: saline with Tween-80): 88 % of control
T/C (endpoint: mean survival time, dose: 100.0 mg/kg/injection, schedule: Q04DX002 (ip), vehicle: saline with Tween-80): 98 % of control

CC[C@@H](C)[C@@H]1NC(=O)C(NC(=O)C(CC(C)C)N(C)C(=O)C2CCCN2C(=O)C(C)O)C(C)OC(=O)C(Cc2ccc(OC)cc2)N(C)C(=O)C2CCCN2C(=O)C(CC(C)C)NC(=O)C(C)C(=O)C(C(C)C)OC(=O)C[C@H]1O (stereo partly specified)
T/C (endpoint: median survival time, dose: 10.0 micrograms/kg/injection, schedule: Q01DX009 (ip), vehicle: distilled water + alcohol): 104 % of control
T/C (endpoint: median survival time, dose: 25.0 micrograms/kg/injection, schedule: Q01DX009 (ip), vehicle: distilled water + alcohol): 111 % of control
T/C (endpoint: median survival time, dose: 40.0 micrograms/kg/injection, schedule: Q01DX009 (ip), vehicle: distilled water + alcohol): 104 % of control
T/C (endpoint: median survival time, dose: 50.0 micrograms/kg/injection, schedule: Q01DX009 (ip), vehicle: distilled water + alcohol): 111 % of control
T/C (endpoint: median survival time, dose: 80.0 micrograms/kg/injection, schedule: Q01DX009 (ip), vehicle: distilled water + alcohol): 112 % of control
T/C (endpoint: median survival time, dose: 100.0 micrograms/kg/injection, schedule: Q01DX009 (ip), vehicle: distilled water + alcohol): 121 % of control
T/C (endpoint: median survival time, dose: 160.0 micrograms/kg/injection, schedule: Q01DX009 (ip), vehicle: distilled water + alcohol): 112 % of control

Cc1ccc2nc(-c3ccc4nc(-c5ccc(N)cc5)sc4c3)sc2c1S(=O)(=O)O
T/C (endpoint: mean survival time, dose: 100.0 mg/kg/injection, schedule: Q04DX003 (ip), vehicle: saline): 109 % of control
T/C (endpoint: mean survival time, dose: 200.0 mg/kg/injection, schedule: Q04DX003 (ip), vehicle: saline): 107 % of control
T/C (endpoint: mean survival time, dose: 400.0 mg/kg/injection, schedule: Q04DX003 (ip), vehicle: saline): 112 % of control

CN(C)S(=O)(=O)c1ccc(Cl)c([N+](=O)[O-])c1
T/C (endpoint: mean survival time, dose: 100.0 mg/kg/injection, schedule: Q04DX002 (ip), vehicle: Klucel (hydroxypropylcellulose) (HPC)): 106 % of control
T/C (endpoint: mean survival time, dose: 200.0 mg/kg/injection, schedule: Q04DX002 (ip), vehicle: Klucel (hydroxypropylcellulose) (HPC)): 106 % of control

NC(=O)c1ncn(C2OC3COP(=O)(O)OC3C2O)c1N (stereo unspecified)
T/C (endpoint: median survival time, dose: 44.6 mg/kg/injection, schedule: Q01DX005 (ip), vehicle: saline): 98 % of control
T/C (endpoint: median survival time, dose: 89.2 mg/kg/injection, schedule: Q01DX005 (ip), vehicle: saline): 101 % of control
T/C (endpoint: median survival time, dose: 178.5 mg/kg/injection, schedule: Q01DX005 (ip), vehicle: saline): 93 % of control

O=[N+]([O-])c1ccc(Sc2ncnc3nc[nH]c23)c([N+](=O)[O-])c1
T/C (endpoint: mean survival time, dose: 16.6 mg/kg/injection, schedule: Q01DX005 (ip), vehicle: other): 154 % of control
T/C (endpoint: mean survival time, dose: 25.0 mg/kg/injection, schedule: Q01DX005 (ip), vehicle: other): 167 % of control
T/C (endpoint: mean survival time, dose: 37.5 mg/kg/injection, schedule: Q01DX005 (ip), vehicle: other): 162 % of control
T/C (endpoint: mean survival time, dose: 56.3 mg/kg/injection, schedule: Q01DX005 (ip), vehicle: other): 167 % of control

Cc1n[nH]c2ccc(Br)cc2c1=O
T/C [5]: 97 % of control
T/C (endpoint: mean survival time, dose: 100.0 mg/kg/injection, schedule: Q01DX009 (ip), vehicle: saline with Tween-80): 91 % of control
T/C (endpoint: mean survival time, dose: 100.0 mg/kg/injection, schedule: Q04DX003 (ip), vehicle: saline with Tween-80): 101 % of control
T/C (endpoint: mean survival time, dose: 200.0 mg/kg/injection, schedule: Q01DX009 (ip), vehicle: saline with Tween-80): 101 % of control
T/C (endpoint: mean survival time, dose: 200.0 mg/kg/injection, schedule: Q04DX003 (ip), vehicle: saline with Tween-80): 87 % of control

c1ccc(COC2CN3CCC2CC3)cc1 (stereo unspecified)
T/C [4]: 100 % of control
T/C [5]: 100 % of control

CC(C)(C)NC(C1=CC(C)(C)c2ccccc2C1=O)c1ccccc1 (stereo unspecified)
T/C [6]: 101 % of control
T/C [7]: 101 % of control
T/C [8]: 101 % of control

C=C1C(C)C2C(Cc3ccccc3)NC(=O)C23C(OC(C)=O)/C=C/C(C)(O)CC(C)C/C=C/C3C1O (stereo unspecified)
T/C (endpoint: mean survival time, dose: 0.37 mg/kg/injection, schedule: Q01DX009 (ip), vehicle: Klucel (hydroxypropylcellulose) (HPC)): 95 % of control
T/C (endpoint: mean survival time, dose: 0.75 mg/kg/injection, schedule: Q01DX009 (ip), vehicle: Klucel (hydroxypropylcellulose) (HPC)): 100 % of control
T/C (endpoint: mean survival time, dose: 1.5 mg/kg/injection, schedule: Q01DX009 (ip), vehicle: Klucel (hydroxypropylcellulose) (HPC)): 96 % of control
T/C (endpoint: mean survival time, dose: 3.0 mg/kg/injection, schedule: Q01DX009 (ip), vehicle: Klucel (hydroxypropylcellulose) (HPC)): 96 % of control
T/C (endpoint: mean survival time, dose: 6.0 mg/kg/injection, schedule: Q01DX009 (ip), vehicle: Klucel (hydroxypropylcellulose) (HPC)): 105 % of control
T/C (endpoint: mean survival time, dose: 12.0 mg/kg/injection, schedule: Q01DX009 (ip), vehicle: Klucel (hydroxypropylcellulose) (HPC)): 105 % of control
T/C (endpoint: mean survival time, dose: 375.0 micrograms/kg/injection, schedule: Q01DX009 (ip), vehicle: Klucel (hydroxypropylcellulose) (HPC)): 106 % of control
T/C (endpoint: mean survival time, dose: 750.0 micrograms/kg/injection, schedule: Q01DX009 (ip), vehicle: Klucel (hydroxypropylcellulose) (HPC)): 96 % of control
T/C (endpoint: mean survival time, dose: 1500.0 micrograms/kg/injection, schedule: Q01DX009 (ip), vehicle: Klucel (hydroxypropylcellulose) (HPC)): 104 % of control
T/C (endpoint: mean survival time, dose: 3000.0 micrograms/kg/injection, schedule: Q01DX009 (ip), vehicle: Klucel (hydroxypropylcellulose) (HPC)): 101 % of control
T/C (endpoint: mean survival time, dose: 6000.0 micrograms/kg/injection, schedule: Q01DX009 (ip), vehicle: Klucel (hydroxypropylcellulose) (HPC)): 96 % of control

O=c1[nH]c(=S)ccn1C1OC(COP(=O)(O)O)C(O)C1O (stereo unspecified)
T/C (endpoint: mean survival time, dose: 12.5 mg/kg/injection, schedule: Q01DX005 (ip), vehicle: water): 98 % of control
T/C (endpoint: mean survival time, dose: 25.0 mg/kg/injection, schedule: Q01DX005 (ip), vehicle: water): 103 % of control
T/C (endpoint: mean survival time, dose: 50.0 mg/kg/injection, schedule: Q01DX005 (ip), vehicle: water): 103 % of control
T/C (endpoint: mean survival time, dose: 100.0 mg/kg/injection, schedule: Q01DX005 (ip), vehicle: water): 103 % of control
T/C (endpoint: mean survival time, dose: 200.0 mg/kg/injection, schedule: Q01DX005 (ip), vehicle: water): 103 % of control

CC12C(=O)C=CCC1=CCC1C2CCC2(O)C(=O)OC3(C)C4CC5(C)C(COC16OC23C5C6=O)C(=O)O4 (stereo unspecified)
T/C (endpoint: median survival time, dose: 25.0 mg/kg/injection, schedule: Q01DX009 (ip), vehicle: Klucel (hydroxypropylcellulose) (HPC)): 102 % of control
T/C [6]: 96 % of control
T/C [7]: 100 % of control
T/C [8]: 108 % of control

Reference: PubChem BioAssay AID256 (DTP/NCI, 2004)
